# Laboratory results as given in patent US11103505B2, “Formulations of a compound modulating kinases” (Plexxikon Inc., priority 2017, dated 2021).
# Entries after “also recorded” stand apart in the source; their conditions may differ. Where two headings read alike, the source gives them in different places.
# Columns and labels:
# CYP3A4 = molecular target: T1, CYP3A4 (Homo sapiens, UniProt P08684); experiment: Addition of CYP inhibitors: metabolism of Compound I; type: in vivo; settings: observed in Phase I clinical trials
# T1 construct: from tissue; host or cells: human subjects in vivo (endogenous enzyme)
# T1 sequence (P08684 whole entry): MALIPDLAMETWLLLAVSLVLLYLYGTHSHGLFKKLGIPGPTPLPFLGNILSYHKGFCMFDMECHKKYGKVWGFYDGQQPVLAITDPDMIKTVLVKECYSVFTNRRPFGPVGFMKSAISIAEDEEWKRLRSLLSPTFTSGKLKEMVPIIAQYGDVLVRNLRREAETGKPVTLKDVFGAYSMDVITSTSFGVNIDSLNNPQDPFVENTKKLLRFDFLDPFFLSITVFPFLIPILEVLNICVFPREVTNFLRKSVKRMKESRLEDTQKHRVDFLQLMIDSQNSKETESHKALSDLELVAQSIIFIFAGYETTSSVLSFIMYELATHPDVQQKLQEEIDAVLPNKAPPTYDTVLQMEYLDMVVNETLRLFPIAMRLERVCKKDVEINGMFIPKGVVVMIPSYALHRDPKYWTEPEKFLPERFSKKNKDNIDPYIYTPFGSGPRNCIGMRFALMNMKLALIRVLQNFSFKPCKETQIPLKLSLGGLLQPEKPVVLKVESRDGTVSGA
# [1] = Phase 1 Part B: effect of CYP3A4 inhibitor cobicistat on PK of Compound I (HME) in healthy subjects; type: in vivo, human
# Description: (§1) A total of 40 adult subjects with a mean age of 37 years were enrolled. Part A enrolled subjects into four single dose cohorts of Compound I ranging from 150 to 900 mg, and the PK data were evaluated to select the most appropriate dose level to use in Part B (900 mg). […] All doses of each drug were administered in the fasted state. This study used an amorphous solid dispersion formulation of Compound I produced with a hot-melt extrusion (HME) process.
# cytochrome P450 enzyme = cytochrome P450 enzyme (Homo sapiens, UniProt P08684); experiment: CYP reaction phenotyping analysis; type: in vitro ADME
# Sequence of cytochrome P450 enzyme (P08684 whole entry): as above
# [2] = Phase 1 Part A: single ascending dose PK of Compound I (75 mg HME tablet) in healthy subjects; type: in vivo, human; settings: for AUC(0-t) / AUC(0-inf) / Cmax / half-life / Vd/F / CL/F / t1/2: geometric mean (CV %); for Vd/F: read-out: Vz/F; for Tmax: median (minimum-maximum)
# Description: The 75 mg tablet formulation (described in Table 4) was made using the hot melt extrusion (HME) process described in this disclosure. This 75 mg tablet was used in human clinical studies (single-dose study in healthy volunteers) and (repeat-dose study in cancer patients). […] Following repeat dosing, the steady state exposure at the highest dose evaluated (900 mg BID), AUCt=68700 ng·hr/mL, approached the target efficacious exposure (Table 7).
# as §1
# [3] = Phase 1 Part B: effect of CYP3A4 inhibitor cobicistat on PK of Compound I (HME) in healthy subjects; type: in vivo, human; remark: listed apart in the source
# [4] = 900 mg level, compared with Compound I administered alone
# [5] = human, in vivo, oral, Compound I 900 mg single dose alone, Part B, HME, fasted, N = 10, geometric mean (% CV)
# [6] = human, in vivo, oral, single dose 150 mg, 75 mg HME tablet, fasted, N = 6
# [7] = human, in vivo, oral, single dose 300 mg, 75 mg HME tablet, fasted, N = 5
# [8] = human, in vivo, oral, single dose 450 mg, 75 mg HME tablet, fasted, N = 6
# [9] = human, in vivo, oral, single dose 900 mg, 75 mg HME tablet, fasted, N = 6
# [10] = single dose 150 mg, 75 mg HME tablet, fasted, N = 6
# [11] = single dose 300 mg, 75 mg HME tablet, fasted, N = 5
# [12] = single dose 450 mg, 75 mg HME tablet, fasted, N = 6
# [13] = single dose 900 mg, 75 mg HME tablet, fasted, N = 6
# [14] = 300 mg level, compared with Compound I administered alone
# [15] = human, in vivo, oral, Compound I 300 mg single dose alone, Part B, HME, fasted, N = 8, geometric mean (% CV)
smiles,measurement,setting,value
Nn1nnc2ccccc21 [ABT],effect of added CYP inhibitor on metabolism of Compound I,CYP3A4,blocked the metabolism of Compound I
"O=C(c1c(F)ccc(NS(=O)(=O)N2CC[C@@H](F)C2)c1F)c1c[nH]c2ncc(-c3cnc(C4CC4)nc3)cc12 [Compound I, (R)-N-(3-(5-(2-cyclopropylpyrimidin-5-yl)-1H-pyrrolo[2,3-b]pyridine-3-carbonyl)-2,4-difluorophenyl)-3-fluoropyrrolidine-1-sulfonamide]",increase of mean AUC0-t and AUC0-∞ with cobicistat co-administration,[1]; [4],3.8 fold
same,increase of mean Cmax with cobicistat co-administration,[1]; [4],2.7 fold
same,AUC(0-t),"[1]; human, in vivo, oral, 900 mg, Compound I 900 mg single dose alone, Part B, HME, fasted, N = 10, geometric mean (% CV)",34800 ng·h/mL
same,AUC(0-inf),[1]; [5],35200 ng·h/mL
same,Cmax,[1]; [5],11400 ng/mL
same,half-life,[1]; [5],8.94 h
same,Tmax,"[1]; human, in vivo, oral, Compound I 900 mg single dose alone, Part B, HME, fasted, N = 10, median (minimum-maximum)",2 h
same,main cytochrome P450 enzyme responsible for metabolism,cytochrome P450 enzyme,CYP3A4
same,AUC(0-t),"[2]; human, in vivo, oral, 150 mg, single dose 150 mg, 75 mg HME tablet, fasted, N = 6, read-out: AUC0-12",7240 ng·h/mL
same,AUC(0-t),"[2]; human, in vivo, oral, 150 mg, single dose 150 mg, 75 mg HME tablet, fasted, N = 6, read-out: AUC0-24",7720 ng·h/mL
same,AUC(0-t),"[2]; human, in vivo, oral, 150 mg, single dose 150 mg, 75 mg HME tablet, fasted, N = 6, read-out: AUC0-t",7870 ng·h/mL
same,AUC(0-t),"[2]; human, in vivo, oral, 300 mg, single dose 300 mg, 75 mg HME tablet, fasted, N = 5, read-out: AUC0-12",12100 ng·h/mL
same,AUC(0-t),"[2]; human, in vivo, oral, 300 mg, single dose 300 mg, 75 mg HME tablet, fasted, N = 5, read-out: AUC0-24",12600 ng·h/mL
same,AUC(0-t),"[2]; human, in vivo, oral, 300 mg, single dose 300 mg, 75 mg HME tablet, fasted, N = 5, read-out: AUC0-t",12900 ng·h/mL
same,AUC(0-t),"[2]; human, in vivo, oral, 450 mg, single dose 450 mg, 75 mg HME tablet, fasted, N = 6, read-out: AUC0-12",21000 ng·h/mL
same,AUC(0-t),"[2]; human, in vivo, oral, 450 mg, single dose 450 mg, 75 mg HME tablet, fasted, N = 6, read-out: AUC0-24",21800 ng·h/mL
same,AUC(0-t),"[2]; human, in vivo, oral, 450 mg, single dose 450 mg, 75 mg HME tablet, fasted, N = 6, read-out: AUC0-t",22100 ng·h/mL
same,AUC(0-t),"[2]; human, in vivo, oral, 900 mg, single dose 900 mg, 75 mg HME tablet, fasted, N = 6, read-out: AUC0-12",37500 ng·h/mL
same,AUC(0-t),"[2]; human, in vivo, oral, 900 mg, single dose 900 mg, 75 mg HME tablet, fasted, N = 6, read-out: AUC0-24",39200 ng·h/mL
same,AUC(0-t),"[2]; human, in vivo, oral, 900 mg, single dose 900 mg, 75 mg HME tablet, fasted, N = 6, read-out: AUC0-t",40000 ng·h/mL
same,AUC(0-inf),[2]; [6],7610 ng·h/mL
same,Cmax,[2]; [6],2070 ng/mL
same,half-life,[2]; [6],8.18 h
same,Vd/F,[2]; [6],233 L
same,Tmax,"[2]; human, in vivo, oral, single dose 150 mg, 75 mg HME tablet, fasted, N = 6, read-out: tmax",2 h
same,AUC(0-inf),[2]; [7],13200 ng·h/mL
same,Cmax,[2]; [7],4180 ng/mL
same,half-life,[2]; [7],9.56 h
same,Vd/F,[2]; [7],313 L
same,Tmax,"[2]; human, in vivo, oral, single dose 300 mg, 75 mg HME tablet, fasted, N = 5, read-out: tmax",2 h
same,AUC(0-inf),[2]; [8],22400 ng·h/mL
same,Cmax,[2]; [8],7500 ng/mL
same,half-life,[2]; [8],8.36 h
same,Vd/F,[2]; [8],243 L
same,Tmax,"[2]; human, in vivo, oral, single dose 450 mg, 75 mg HME tablet, fasted, N = 6, read-out: tmax",1 h
same,AUC(0-inf),[2]; [9],40400 ng·h/mL
same,Cmax,[2]; [9],13300 ng/mL
same,half-life,[2]; [9],9.12 h
same,Vd/F,[2]; [9],293 L
same,Tmax,"[2]; human, in vivo, oral, single dose 900 mg, 75 mg HME tablet, fasted, N = 6, read-out: tmax",1 h
same,PK linearity,[2]; single ascending doses under fasted conditions,linear PK
same,CL/F,[2]; [10],19.7 (46.9) L/hr
same,t1/2,[2]; [10],8.18 h
same,CL/F,[2]; [11],22.7 (56.5) L/hr
same,t1/2,[2]; [11],9.56 h
same,Tmax,[2]; [11],2.0 (1.0-2.0) hr
same,CL/F,[2]; [12],20.1 (62.5) L/hr
same,t1/2,[2]; [12],8.36 h
same,Tmax,[2]; [12],1.0 (1.0-2.0) hr
same,CL/F,[2]; [13],22.3 (55.8) L/hr
same,t1/2,[2]; [13],9.12 h
same,Tmax,[2]; [13],1.0 (1.0-2.0) hr
same,exposure (Cmax and AUC) versus dose,"[2]; single dose 150 to 900 mg, 75 mg HME tablet, fasted",dose-proportional increase in exposure; also recorded: Exposure increased dose proportionally
same,increase of mean AUC0-t and AUC0-∞ with cobicistat co-administration,[3]; [14],2.6 fold
same,increase of mean Cmax with cobicistat co-administration,[3]; [14],1.8 fold
same,AUC(0-t),"[3]; human, in vivo, oral, 300 mg, Compound I 300 mg single dose alone, Part B, HME, fasted, N = 8, geometric mean (% CV), read-out: AUC0-24",15800 ng·h/mL
same,AUC(0-t),"[3]; human, in vivo, oral, 300 mg, Compound I 300 mg single dose alone, Part B, HME, fasted, N = 8, geometric mean (% CV), read-out: AUC0-t",16200 ng·h/mL
same,AUC(0-t),"[3]; human, in vivo, oral, 900 mg, Compound I 900 mg single dose alone, Part B, HME, fasted, N = 10, geometric mean (% CV), read-out: AUC0-24",34100 ng·h/mL
same,AUC(0-inf),[3]; [15],16400 ng·h/mL
same,Cmax,[3]; [15],4840 ng/mL
same,half-life,[3]; [15],9.96 h
same,Tmax,"[3]; human, in vivo, oral, Compound I 300 mg single dose alone, Part B, HME, fasted, N = 8, median (minimum-maximum)",2 h
